Legend:
[1] = system: P388 cells; assay: Cytotoxicity, murine P388 leukemic cells (P388 D1); conditions: for cytotoxicity compared with compound 9d: Table 3 screens; for IC50: read-out: P388 cells IC50
[2] = system: human tumors; assay: Cytotoxicity, human tumor cell line panel (approximately 55 lines); conditions: for selective/preferential cytotoxicity towards colon cancer cells / Selective toxicity towards leukemia: human tumor screen; for IC50: read-out: human tumors IC50, mean graph midpoint, approximately 55 cell lines, hydrobromide salts used for 4a, 11a-e
[3] = system: L1210 cells; assay: Cytotoxicity, murine L1210 leukemic cells; format: cell-based; conditions: Mus musculus, mean
[4] = system: CEM cells; assay: Cytotoxicity, CEM human T-lymphocytes; conditions: for IC50: Homo sapiens, CCRF-CEM, read-out: CEM cells IC50; for TIL1210 (CEM cells): IC50 T-lymphocytes (CEM)/IC50 L1210; for TIP388 (CEM cells): IC50 T-lymphocytes (CEM)/IC50 P388; for TIht (CEM cells): IC50 T-lymphocytes (CEM)/IC50 human tumors
[5] = system: Molt 4/C8 cells; assay: Cytotoxicity, Molt 4/C8 human T-lymphocytes; conditions: for TIL1210 (Molt 4/C8 cells): IC50 T-lymphocytes (Molt 4/C8)/IC50 L1210; for TIP388 (Molt 4/C8 cells): IC50 T-lymphocytes (Molt 4/C8)/IC50 P388; for IC50: read-out: Molt 4/C8 cells IC50; for TIht (Molt 4/C8 cells): IC50 T-lymphocytes (Molt 4/C8)/IC50 human tumors

SMILES | cytotoxicity compared with compound 9d [1] | IC50 [1] [µM] | selective/preferential cytotoxicity towards colon cancer cells [2] | IC50 [3] [µM] | IC50 [4] [µM] | TIL1210 (CEM cells) [4] | TIP388 (CEM cells) [4] | TI (murine leukemia cells vs T-lymphocytes; printed TIht) compared with compound d [5] | TIht compared with compound 9d [5] | TIL1210 (Molt 4/C8 cells) [5] | TIP388 (Molt 4/C8 cells) [5] | IC50 [5] [µM] | activity relative to melphalan, human tumors [2] | IC50 [2] [µM] | TIht (CEM cells) [4] | TIht (Molt 4/C8 cells) [5] | Selective toxicity towards leukemia [2] | potency relative to melphalan, P388 [1]
CCN1CCC(O)(/C=C/c2ccc(C)c(C)c2)C(C(=O)/C=C/c2ccc(C)c(C)c2)C1 (stereo not shown) [Compound 13b] | comparable cytotoxicity to compound 9d | 2.59 | neither 13a,b displayed selective toxicity for colon cancers | 20.9 | 30.8 | 1.47 | 11.89 | lower | greater than compound 9d | 0.67 | 5.41 | 14 ± 8.6 | – | – | – | – | – | –
CC[N+]1(C)CCC(O)(c2ccc(C)cc2)C(C(=O)c2ccc(C)cc2)C1 (stereo not shown) [Compound 12d] | – | 2.1 | – | – | – | – | – | – | – | – | – | – | five times more potent than melphalan | 50.1 | – | – | – | –
CCN1CCC(O)(c2ccccc2)C(C(=O)c2ccccc2)C1 (stereo not shown) [Compound 11a] | – | 1.07 | – | 20.1 | 45.7 | 2.28 | 42.70 | – | – | 1.80 | 33.78 | 36.1 | – | 30.2 | 1.51 | 1.20 | – | –
CCN(CC)CCC(=O)/C=C/c1ccc(OC)cc1 [Compound 1e] | – | 0.67 | – | 44.3 | 48.6 | 1.10 | 72.55 | – | – | 1.17 | 77.69 | 52.1 | – | – | – | – | – | –
O=C(/C=C/c1ccccc1)CCN1CCN(CCC(=O)/C=C/c2ccccc2)CC1 [Compound 8a] | – | 0.62 | – | 5.78 | 5.55 | 0.96 | 3.95 | – | – | 0.95 | 8.89 | 5.51 ± 2.73 | – | 12 | 0.46 | 0.46 | – | –
CCN(CC)CCC(=O)/C=C/c1ccccc1 [Compound 1a] | – | 1.7 | – | 25.7 | 33.9 | 1.32 | 19.92 | – | – | 1.66 | 25.04 | 42.6 | – | 9.77 | 3.47 | 4.36 | this property was also noted | –
CCN1CCC(O)(c2ccc(Cl)cc2)C(C(=O)c2ccc(Cl)cc2)C1 (stereo not shown) [Compound 11b] | – | 5.14 | – | 15.7 | 102 | 6.52 | 19.89 | – | – | 3.68 | 11.21 | 57.6 | – | 83.2 | 1.23 | 0.69 | – | –
CCN(CC)CCC(=O)c1ccc(Cl)cc1 [Compound 4b] | – | 3.2 | – | 36.9 | 40 | 1.08 | 12.50 | – | – | 0.62 | 7.13 | 22.8 | – | – | – | – | – | –
CCN1CCC(O)(/C=C/c2ccc(OC)cc2)C(C(=O)/C=C/c2ccc(OC)cc2)C1 (stereo not shown) [Compound 9e] | – | 5 | – | 25.6 | 11.7 | 0.46 | 2.35 | – | – | 0.81 | 4.14 | 20.7 | – | 8.31 | 1.41 | 2.49 | this property was also noted | –
CCN1CCC(O)(/C=C/c2cccc(C)c2)C(C(=O)/C=C/c2cccc(C)c2)C1 (stereo not shown) [Compound 13a] | comparable cytotoxicity to compound 9d | 1.89 | neither 13a,b displayed selective toxicity for colon cancers | 12.6 | 9.23 | 0.73 | 4.89 | lower | greater than compound 9d | 1.14 | 7.57 | 14.3 ± 9.1 | – | 2.46 | 3.75 | 5.81 | – | –
CCN(CC)CCC(=O)c1ccc(Cl)c(Cl)c1 [Compound 4c] | – | – | – | – | – | – | – | – | – | – | – | – | – | – | – | – | – | more than half the potency of melphalan
CCN(CC)CCC(=O)c1ccccc1 [Compound 4a] | – | 2.6 | – | 20.3 | 38.5 | 1.90 | 14.81 | – | – | 0.86 | 6.68 | 17.4 | – | 25.1 | 1.53 | 0.69 | – | –
CC[N+]1(C)CCC(O)(c2ccc(Cl)c(Cl)c2)C(C(=O)c2ccc(Cl)c(Cl)c2)C1 (stereo not shown) [Compound 12c] | – | 2.3 | – | 33.6 | 25.8 | 0.77 | 11.20 | – | – | 0.84 | 12.23 | 28.1 | – | 9.54 | 2.70 | 2.95 | – | –
CCN1CCC(O)(c2ccc(C)cc2)C(C(=O)c2ccc(C)cc2)C1 (stereo not shown) [Compound 11d] | – | 8.6 | – | 38.2 | 38.7 | 1.01 | 4.50 | – | – | 0.89 | 3.97 | 34.2 | – | 25.1 | 1.54 | 1.36 | – | –
CCN(CC)CCC(=O)c1ccc(C)cc1 [Compound 4d] | – | 2.2 | – | 21.5 | 64.1 | 2.98 | 29.15 | – | – | 2.96 | 28.97 | 63.7 | – | 26.3 | 2.44 | 2.42 | – | –
CC[N+]1(C)CCC(O)(c2ccc(OC)cc2)C(C(=O)c2ccc(OC)cc2)C1 (stereo not shown) [Compound 12e] | – | 0.98 | – | – | – | – | – | – | – | – | – | – | – | 10.2 | – | – | Selective toxicity towards leukemia was observed | –
CCN(CC)CCC(=O)/C=C/c1ccc(C)cc1 [Compound 1d] | – | 1.1 | – | 52.9 | 48.6 | 0.92 | 44.19 | – | – | 1.05 | 50.65 | 55.7 | – | – | – | – | – | –
CCN(CC)CCC(=O)/C=C/c1ccc(Cl)cc1 [Compound 1b] | – | 0.3 | – | 41 | 53.3 | 1.30 | 177.6 | – | – | 0.98 | 134.6 | 40.4 | – | – | – | – | – | more than half the potency of melphalan
CCN1CCC(O)(/C=C/c2ccccc2)C(C(=O)/C=C/c2ccccc2)C1 (stereo not shown) [Compound 9a] | – | 1.4 | – | 5.3 | 16.5 | 3.12 | 11.81 | – | – | 5.64 | 21.36 | 29.9 | – | 2.75 | 6.02 | 10.88 | – | –
CCN1CCC(O)(c2ccc(Cl)c(Cl)c2)C(C(=O)c2ccc(Cl)c(Cl)c2)C1 (stereo not shown) [Compound 11c] | – | 3.11 | – | – | – | – | – | – | – | – | – | – | – | 16.6 | – | – | – | –
CCN1CCC(O)(/C=C/c2ccc(Cl)c(Cl)c2)C(C(=O)/C=C/c2ccc(Cl)c(Cl)c2)C1 (stereo not shown) [Compound 9c] | – | 0.4 | – | – | – | – | – | – | – | – | – | – | – | 0.38 | – | – | – | more than half the potency of melphalan
CCN1CCC(O)(c2ccc(OC)cc2)C(C(=O)c2ccc(OC)cc2)C1 (stereo not shown) [Compound 11e] | – | 4.17 | – | 13.5 | 39.9 | 2.96 | 9.57 | – | – | 2.94 | 9.51 | 39.7 | – | 19.5 | 2.05 | 2.04 | – | –
O=C(CCN1CCN(CCC(=O)c2ccccc2)CC1)c1ccccc1 [Compound 8b] | – | 2.84 | – | 9.71 | 16 | 1.65 | 5.64 | – | – | 2.69 | 9.20 | 26.1 | – | – | – | – | – | –
CC[N+]1(C)CCC(O)(/C=C/c2ccc(C)cc2)C(C(=O)/C=C/c2ccc(C)cc2)C1 (stereo not shown) [Compound 10d] | – | 0.62 | – | 13.8 | 3.92 | 0.28 | 6.32 | – | – | 0.45 | 9.98 | 6.19 ± 0.7 | – | – | – | – | – | –
CC[N+]1(C)CCC(O)(c2ccc(Cl)cc2)C(C(=O)c2ccc(Cl)cc2)C1 (stereo not shown) [Compound 12b] | – | 1.5 | – | – | – | – | – | – | – | – | – | – | – | 12.9 | – | – | Selective toxicity towards leukemia was observed | –
CC[N+]1(C)CCC(O)(c2ccccc2)C(C(=O)c2ccccc2)C1 (stereo not shown) [Compound 12a] | – | 1.3 | – | – | – | – | – | – | – | – | – | – | – | 12.9 | – | – | Selective toxicity towards leukemia was observed | –

Source: patent US6017933A, “Mannich bases of conjugated styryl ketones” (University of Saskatchewan Technologies Inc., priority 1999, dated 2000)
